From US6344203B1, “Mimicking peptides in cancer therapy” (The Austin Research Institute, priority 1995, dated 2002)
Where two headings read alike, the source gives them in different places. No end group written: not given here.

Columns and labels:
[1] = test system: human anti-Galα(1,3)Gal IgG antibodies; assay: Elisa: inhibition of anti-Galα(1,3)Gal IgG binding to Galα(1,3)Gal-BSA; settings: for Inhibition of anti-Galα(1,3)Gal IgG binding to Galα(1,3)Gal-BSA (in words) / Inhibition of binding of anti-Galα(1,3)Gal IgG to Galα(1,3)Gal-BSA: Elisa; for Inhibition of anti-Galα(1,3)Gal IgG binding to Galα(1,3)Gal-BSA (in words): varying concentrations of inhibitor; for Inhibition of binding of anti-Galα(1,3)Gal IgG to Galα(1,3)Gal-BSA: peptides at 5 mM (FIG. 8b)
Protocol: (§1) 50 μl of either purified anti-Galα(1,3)Ga IgG or biotinylated IB4 lectin was added to the wells, incubated for 45 minutes at 22° C., washed with PBS-0.05% Tween 20, and 50 μl of the relevant IIRP conjugate added and incubated for a further 45 minutes before washing and the addition of 50 μl of substrate (2,2′ Azino-di-B-ethylbenzthiozoline (Zymed, San Francisco, Calif.)) and reading the OD405.
(§2) An Elisa was established to calculate the relative “affinity” of the Gal pep 1 (SEQ ID No. 1) for the IB4 lectin and for human anti-Galα(1,3)Gal antibodies, and to compare these with the affinities for α-galactosyl sugars.
(§3) Peptides or carbohydrates were examined cytofluorographically for their ability to inhibit antibody/lectin binding to the cell surface using a FACSCAN flow cytometer (Becton Dickinson, USA)[20]: 25 μl of inhibitor was mixed with 25 μl of antibody of lectin and incubated at 22° C. for 3 hours (peptides) or at 4° C. for 16 hours (carbohydrates)[14], prior to addition of appropriate targets. An Elisa assay was used to calculate the relative affinities of the sugars or the peptides for both IB4 lectin and antibodies, and were defined as the molar concentration of inhibitor giving 50% inhibition of the maximal binding of lectin or antibody.

IB4 lectin [2] = target: T1, IB4 lectin (Griffonia simplicifolia, UniProt Q8W1R6); assay: Elisa: inhibition of IB4 lectin binding to Galα(1,3)Gal-BSA; settings: for Inhibition of IB4 lectin binding to Galα(1,3)Gal-BSA (in words) / Inhibition of binding of IB4 to Galα(1,3)Gal-BSA: Elisa; for Inhibition of IB4 lectin binding to Galα(1,3)Gal-BSA (in words): varying concentrations of inhibitor; for Inhibition of binding of IB4 to Galα(1,3)Gal-BSA: peptide concentration 5 mM (FIG. 8a)
T1 sequence (Q8W1R6 1-247): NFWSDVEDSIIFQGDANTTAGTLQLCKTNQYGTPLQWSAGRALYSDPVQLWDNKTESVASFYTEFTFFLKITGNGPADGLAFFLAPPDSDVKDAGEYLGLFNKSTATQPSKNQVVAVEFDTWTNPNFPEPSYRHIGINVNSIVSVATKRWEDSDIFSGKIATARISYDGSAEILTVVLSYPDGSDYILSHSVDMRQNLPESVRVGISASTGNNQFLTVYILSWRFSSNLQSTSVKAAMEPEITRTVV
Protocol: as §1, §2, §3

IB4 lectin [3] = target: T1, IB4 lectin; assay: Cytofluorographic inhibition of IB4 lectin binding to PIEC cells; type: cell-based
Protocol: FIGS. 3(A-C). […] (A); Staining of PIEC cells with IB4 lectin (1 μg/ml). (B) Staining of PIEC cells with NHS (final dilution of 1/50) and anti-human Ig. (C) Staining of PBL with IB4 lectin (μg/ml). Peptides were used at 5 mM (A and C) or at 20 mM (B). In each panel profile “a” represents binding in the presence of Gal pep 1 (SEQ ID No. 1), and profile “b” the binding in the presence of CD48 pep 1 (SEQ ID No. 11).
FIGS. 6(A-B). […] Varying concentrations of peptides (shown in mM on horizontal axis) were explained for ability to inhibit the binding of IB4 lectin (1 μg/ml) to tie PIEC cells using cytofluorographic analysis. (a) Gal pep 1 (SEQ ID No. 1) (□), Muc pep 1 (SEQ ID No. 15) (∘).
FIG. 7. […] All peptides used at 5 mM, using cytofluorograhic analysis. Inhibition calculated relative to no peptide control.
(§4) The binding of lectin or antibody to the surface of pig cells was detected by hemagglutination, cytotoxicity or flow cytometry using the FACSCAN flow cytometer (Becton Dickinson, Mountain View, Calif.).
as §3

PIEC cells = assay: Inhibition of cytotoxicity of NHS and complement on PIEC; type: cell-based, pig; settings: peptide 10 mM to 2.5 mM, NHS 1/25
Description: FIG. 4. Inhibition of cytotoxicity due to natural antibody and complement by Gal pep 1 (SEQ ID No. 1). Varying concentrations of Gal pep 1 (∘) or CD48 pep 1 (♦) (shown in mM on horizontal axis) were examined in a cytotoxicity assay using NHS (final dilution of 1/25) and PEEC cells as targets.
as §4
Human cytotoxic antibodies directly damage pig endothelial cells in a pig-to-human xenograft, therefore the ability of Gal pep 1 (SEQ ID No. 1) to inhibit the cytotoxicity of human antibodies on PIEC in vitro was tested; Gal pep 1 inhibited the cytotoxicity of NHS (10 mM to 2.5 mM), whereas CD48 pep 1 (SEQ ID No. 11) had no effect (FIG. 4).

IB4 lectin [4] = target: T1, IB4 lectin; assay: biochemical
[5] = test system: MCF-7 (MUC1^+HLA-A*0201^+) cells; assay: CTL assay, HLA-A*0201/K^b spleen CTLs on human breast cancer cells; type: ex vivo, mouse; settings: HLA-A2 mice
Protocol: FIG. 14(A) Direct CTL assay using p815 MUC1+ (Tm2) or P815 targets. DBA/2 mice were immunised with MFP, or Gal-KLH. FIG. 14(B) CTL assay using HLA-A*0201/K^b spleen CTLs from mice immunised with either mimic or mutated mimic peptides on ^51Cr MCF-7 (MUC1^+HLA-A*0201^+) cells. ^51CrBT20 (MUC1^+HLA-A*0201^−) or MF272 (MUC1^−IILA-A*0201^+) cells were also used as targets and as well as ^51CrMCF-7 cells incubated with cold K562 cells at a 30:1 hot:cold ratio (K562, a myelogenous leukemia cell line). Vertical axis=% lysis; horizontal axis=E:T ratio.
It was next investigated whether the […] peptide (SEQ ID No. 1) be presented by HLA-A2 could immunise for HLA-H2 presented MUC1 peptides. […] Thus the […] peptide (SEQ ID No. 1) gives highly specific immune responses which appear to be directed to the human MUC1 peptide presented by MUC class I molecules.

[6] = Table 1, anti-Galα(1,3)Gal IgG 87 μg/ml, concentration giving 50% inhibition of binding, read-out: I50 anti-Galα(1,3)Gal IgG
[7] = Table 3, anti-Galα(1,3)Gal antibody (IgG) 87 μgs/ml, read-out: I50 Anti-Galα(1,3)Gal
[8] = varying peptide concentrations (FIG. 6b)

`OCC1OC(OC2C(O)C(O)OC(CO)C2O)C(O)C(O)C1O` (centres unmarked) [Galα(1,3)Gal] was tested. Which “Inhibition of anti-Galα(1,3)Gal IgG binding to Galα(1,3)Gal-BSA (in words)” value [1] did it give?
Its value is “inhibited”.

And the IC50 [1, 6]?
The IC50 was 30 µM.

What about the IC50 [1, 7] of the same molecule?
The IC50 was 30 µM.

And the “Inhibition of IB4 lectin binding to Galα(1,3)Gal-BSA (in words)” value (IB4 lectin [2])?
Its value is “inhibited”.

What about the IC50 (IB4 lectin [2]; Table 1, biotinylated IB4 lectin […], concentration giving 50% inhibition of binding, read-out: I50 IB4) of the same molecule?
The IC50 was under 30 µM.

And the IC50 (IB4 lectin [2]; read-out: I50 IB4)?
Its IC50 is under 30 µM.

What does the source list for `OCC1OC(OCC2OC(O)C(O)C(O)C2O)C(O)C(O)C1O` (centres unmarked) [Melibiose, Galα(1,6)Glc]?
Inhibition of anti-Galα(1,3)Gal IgG binding to Galα(1,3)Gal-BSA (in words) [1]: inhibited; IC50 [1, 6]: 125 to 300 µM; Inhibition of IB4 lectin binding to Galα(1,3)Gal-BSA (in words) (IB4 lectin [2]): inhibited; IC50 (IB4 lectin [2]; read-out: I50 IB4): 300 µM

What does the source list for `CC(C)[C@H](NC(=O)[C@H](CO)NC(=O)[C@H](CO)NC(=O)[C@H](CCCNC(=N)N)NC(=O)[C@H](CCC(N)=O)NC(=O)[C@@H](NC(=O)[C@H](C)NC(=O)[C@H](CO)NC(=O)[C@@H](NC(=O)[C@H](CCC(=O)O)NC(=O)[C@H](CCCCN)NC(=O)[C@H](CCC(=O)O)NC(=O)CNC(=O)CNC(=O)[C@@H]1CCCN1C(=O)[C@@H](NC(=O)[C@H](CO)NC(=O)[C@H](CO)NC(=O)[C@H](C)NC(=O)[C@H](Cc1c[nH]cn1)NC(=O)CNC(=O)[C@H](CO)NC(=O)CNC(=O)[C@@H](N)[C@@H](C)O)[C@@H](C)O)[C@@H](C)O)[C@@H](C)O)C(=O)N1CCC[C@H]1C(=O)O` [Muc pep 6]?
Inhibition of binding of IB4 to Galα(1,3)Gal-BSA (IB4 lectin [2]): complete inhibition; Inhibition of IB4 lectin binding to PIEC cells (IB4 lectin [3]; peptides at 5 mM (FIG. 7)): partial inhibition

Which “Inhibition of binding of anti-Galα(1,3)Gal IgG to Galα(1,3)Gal-BSA” value [1] does the source give for APDTRPAPGSTAPPAH [Muc pep 4] here?
The value was “partial inhibition”.

What about the IC50 [1, 7] of the same molecule?
Its IC50 is 5000 µM.

And the “Inhibition of binding of IB4 to Galα(1,3)Gal-BSA” value (shortened to “Inhibition of binding of IB4”) (IB4 lectin [2])?
Its value is “complete inhibition”.

What about the “Inhibition of IB4 lectin binding to PIEC cells” value (“Inhibition … to PIEC cells” for short) (IB4 lectin [3]; [8]) of the same molecule?
The value was “partial inhibition”.

How did the “Inhibition … to PIEC cells” value (IB4 lectin [3]; peptides at 5 mM (FIG. 7)) turn out when “CHSTPSFTSSITTTETTS [Muc pep 10, human Muc3 VNTR]” was run?
Its value is “inhibited”.

What does the source list for CPAHGVTSAPDTRPAPGSTAP [Muc pep 1]?
Inhibition of binding of anti-Galα(1,3)Gal IgG to Galα(1,3)Gal-BSA [1]: inhibited; IC50 [1, 7]: 2500 µM; Inhibition of binding of IB4 to Galα(1,3)Gal-BSA (IB4 lectin [2]): complete inhibition; Inhibition of IB4 lectin binding to PIEC cells (IB4 lectin [3]; to a peptide concentration of 0.125 mM (FIG. 6a)): almost complete inhibition

With DAHWESWL [Gal pep 1] as the molecule, how does the IC50 (IB4 lectin [2]) read?
The IC50 was 300 µM.

What about the “Inhibition of cytotoxicity of NHS on PIEC” value (PIEC cells) of the same molecule?
Its value is “inhibited”.

And the IC50 (IB4 lectin [4])?
The IC50 was 5000 µM.

How did the “CTL lysis of human breast cancer cell lines” value [5] turn out when DLHWASWV was run?
The value was “specifically lyse human breast cancer cell lines”.

“KYPTTTPISTTTMVTPTPTPTGTQTPTTT [Muc pep 9, human Muc2 VNTR]” was tested. Which “Inhibition of binding of IB4” value (IB4 lectin [2]) did it give?
The value was “no inhibition”.

What about the “Inhibition … to PIEC cells” value (IB4 lectin [3]; peptides at 5 mM (FIG. 7)) of the same molecule?
Its value is “did not inhibit”.

For “LSGVRFSAARTAHPLPQKH [TNF pep 1, control peptide, MURINE TNFβ]”, which “Inhibition of binding of IB4” value (IB4 lectin [2]) is on record?
The value was “did not inhibit”.

What does the source list for PAPGSTAPPAHGVTSA [Muc pep 5]?
Inhibition of binding of IB4 to Galα(1,3)Gal-BSA (IB4 lectin [2]): complete inhibition; Inhibition of IB4 lectin binding to PIEC cells (IB4 lectin [3]; [8]): partial inhibition

With “RSSVPSSTEKNAVSMTSSVL [Muc pep 7, human Muc1 NH2 to VNTR]” as the molecule, how does the “Inhibition of binding of IB4” value (IB4 lectin [2]) read?
The value was “no inhibition”.

And the “Inhibition … to PIEC cells” value (IB4 lectin [3]; peptides at 5 mM (FIG. 7))?
The value was “did not”.
